Data: BindingDB's records for patent US9018371 (Fm Therapeutics, 2015)

Biological target: T1, Adenosine receptor A3 (Homo sapiens, UniProt P0DMS8)
T1 sequence (P0DMS8 whole entry): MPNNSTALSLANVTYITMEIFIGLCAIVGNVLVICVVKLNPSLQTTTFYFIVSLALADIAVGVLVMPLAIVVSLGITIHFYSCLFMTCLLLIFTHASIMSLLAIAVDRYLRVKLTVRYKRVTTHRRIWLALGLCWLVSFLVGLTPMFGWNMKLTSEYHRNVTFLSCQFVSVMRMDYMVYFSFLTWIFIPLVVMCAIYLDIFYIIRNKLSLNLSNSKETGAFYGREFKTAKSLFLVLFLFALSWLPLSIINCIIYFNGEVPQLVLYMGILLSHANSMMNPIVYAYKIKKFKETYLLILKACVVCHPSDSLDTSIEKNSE
Test: Binding Assay
Procedure: Incubation for 1 hr in a 370C incubator was followed by rapid filtration in a vacuum using a cell collector (TOMTEC, U.S.A.). Subsequently, the test tubes were washed three times with 3 ml of the buffer before radioactivity was measured using a -counter.

## COc1ccccc1CNc1nc(Cl)nc2c1ncn2[C@@H]1SCC(O)[C@@H]1O (stereo partly specified) [US9018371, 7]
  Ki: 19.9 nM
